Experimental data taken from publication PMC8044178, “Structural basis of norepinephrine recognition and transport inhibition in neurotransmitter transporters” (Nature Communications, 2021).
Like-named read-outs stand apart in the source and are kept apart here.

Tests used:
[1] = target: T1, dDATfc A117S/A428S (Drosophila melanogaster, UniProt Q7K4Y6, A117S/A428S/DEL164-191/F471L/L415A/V74A); assay: cell-based; type: cell-based
T1 construct: expressed in transfected cells; host or cells: HEK293S GnTI- cells, transient transfection with pEG-BacMam plasmid
Method: (§1) Earlier studies have posited that non-conserved residues in the primary binding site are responsible for selective inhibition of biogenic amine uptake[57],[58]. […] Effects of these mutations were analyzed through uptake inhibition using the three SNRIs employed in this study (Fig. 6a–c). […] Supplementary Table 2)[56],[59].
(§2) Additional mutations in the subsite B or subsite C were incorporated into this gene used for carrying out the uptake assays.
(§3) Cells were transiently transfected with pEG-BacMam plasmid harboring the dDAT cGFP gene and incubated for 35–40 hrs at 37 °C with 5% CO2 and 80% humidity. […] The transport activity was arrested with 0.5 ml of pre-chilled assay buffer containing 100 μM desipramine (Sigma Aldrich) added to each reaction. The cells were then washed twice with the same buffer before solubilizing them in 0.1 ml of 20 mM DDM for one hour at room temperature. […] Following this, 0.1 ml of the supernatant was added to 0.5 ml of scintillation fluid (Ultima Gold, Perkin Elmer) and the radioactivity was estimated on MicroBeta scintillation counter (Perkin Elmer). […] The background-subtracted, dose–response plots were analyzed using GraphPad Prism v.5.0.1 and Ki values were determined from Cheng–Prusoff’s equation using the IC50 values obtained from the experiments.

[2] = target: hDAT; conditions: read-out: Uptake Inhibition Ki, hDAT; ref 4 (Supplementary: Vaishnavi et al., 2004); cited from earlier work
[3] = target: T2, dDATfc (Drosophila melanogaster dopamine transporter functional construct) (Drosophila melanogaster, UniProt Q7K4Y6, DEL164-191/F471L/L415A/V74A); assay: cell-based
T2 construct: expressed in transfected cells; host or cells: HEK293S GnTI- cells, transient transfection with pEG-BacMam plasmid
Method: as §2, §3

[4] = target: T3, dDATfc A117S (Drosophila melanogaster, UniProt Q7K4Y6, A117S/DEL164-191/F471L/L415A/V74A); assay: cell-based
T3 construct: expressed in transfected cells; host or cells: HEK293S GnTI- cells, transient transfection with pEG-BacMam plasmid
Method: as §1, §2, §3

[5] = target: T4, dDATfc A428S (Drosophila melanogaster, UniProt Q7K4Y6, A428S/DEL164-191/F471L/L415A/V74A); assay: cell-based
T4 construct: expressed in transfected cells; host or cells: HEK293S GnTI- cells, transient transfection with pEG-BacMam plasmid
Method: as §1, §2, §3

[6] = target: hDAT; parameters: method as in earlier work; conditions: vs. RTI-55; ref 4 (Supplementary: Vaishnavi et al., 2004); read-out: Binding Inhibition (Ki), hDAT; cited from earlier work
[7] = target: T5, dDATmfc (Drosophila melanogaster, UniProt Q7K4Y6, DEL162-202/F471L/L415A/V74A); assay: biochemical; conditions: read-out: Percent binding
T5 construct: GFP-8x-His (C); made in house; host or cells: HEK293S GnTI- cells, BacMam baculovirus transduction
Method: (§4) Binding assays were performed with 20 nM of purified dDAT protein by scintillation proximity assay. For determining nisoxetine Kd, [^3H] Nisoxetine (Perkin Elmer) (in 1:5 molar ratio) was used in the range of 0.1 nM to 500 nM with 100 µM desipramine added to the control samples. Competition assays were done with 50 nM [^3H] […] The assays were done in 1 mM DDM, 0.2 mM CHS, 20 mM Tris-Cl (pH 8), 300 mM NaCl and 5% glycerol. The background values were subtracted to plot the final curves in GraphPad prism v5.0.1 and the Kd values were calculated. The IC50 values obtained from binding competition assays were used to deduce the Ki values by Cheng–Prusoff’s equation.

[8] = target: hNET; conditions: read-out: Binding Inhibition (Ki), hNET; cited from earlier work
[9] = target: hNET; conditions: read-out: Uptake Inhibition Ki, hNET; cited from earlier work
[10] = target: T6, dDATNET (Drosophila melanogaster, UniProt Q7K4Y6, D121G/DEL162-202/F471L/L415A/S426M/V74A); assay: biochemical; type: binding
T6 construct: GFP-8x-His (C); made in house; host or cells: HEK293S GnTI- cells, BacMam baculovirus transduction
Method: as §4

CCN(CC)C(=O)[C@]1(c2ccccc2)C[C@@H]1CN [Milnacipran, 1R-2S milnacipran]
IC50 [1]: 8.9 ± 0.3 µM
inhibition at 100 µM ([1]; 0.5 h, read-out: Percent inhibition of DA uptake, A117S_A428S, Log[compound] M = -4, single replicates): 6.51%
inhibition at 30 µM ([1]; 0.5 h, read-out: Percent inhibition of DA uptake, A117S_A428S, Log[compound] M = -4.52288, single replicates): 16.4%
inhibition at 10 µM ([1]; 0.5 h, read-out: Percent inhibition of DA uptake, A117S_A428S, Log[compound] M = -5, single replicates): 35.5%
inhibition at 3 µM ([1]; 0.5 h, read-out: Percent inhibition of DA uptake, A117S_A428S, Log[compound] M = -5.52288, single replicates): 78.6%
inhibition at 0.3 µM ([1]; 0.5 h, read-out: Percent inhibition of DA uptake, A117S_A428S, Log[compound] M = -6.52288, single replicates): 91.2%
inhibition at 0.1 µM ([1]; 0.5 h, read-out: Percent inhibition of DA uptake, A117S_A428S, Log[compound] M = -7, single replicates): 87.2%
inhibition at 0.03 µM ([1]; 0.5 h, read-out: Percent inhibition of DA uptake, A117S_A428S, Log[compound] M = -7.52288, single replicates): 89.7%
Ki [2]: > 100 µM
IC50 [3]: 2.4 ± 0.1 µM
Ki [3]: 1.5 ± 0.1 µM
inhibition at 100 µM ([3]; HEK293S, 0.5 h, read-out: Percent inhibition of DA uptake, dDATfc, Log[compound] M = -4, single replicates): 3.99%
inhibition at 30 µM ([3]; HEK293S, 0.5 h, read-out: Percent inhibition of DA uptake, dDATfc, Log[compound] M = -4.52288, single replicates): 6.55%
inhibition at 10 µM ([3]; HEK293S, 0.5 h, read-out: Percent inhibition of DA uptake, dDATfc, Log[compound] M = -5, single replicates): 22.7%
inhibition at 3 µM ([3]; HEK293S, 0.5 h, read-out: Percent inhibition of DA uptake, dDATfc, Log[compound] M = -5.52288, single replicates): 46.8%
inhibition at 1 µM ([3]; HEK293S, 0.5 h, read-out: Percent inhibition of DA uptake, dDATfc, Log[compound] M = -6, single replicates): 82.4%
IC50 [4]: 2.8 ± 0.2 µM
inhibition at 10 µM ([4]; 0.5 h, read-out: Percent inhibition of DA uptake, A117S, Log[compound] M = -5, single replicates): 21.8%
inhibition at 2.3 µM ([4]; 0.5 h, read-out: Percent inhibition of DA uptake, A117S, Log[compound] M = -5.63827, single replicates): 62.3%
inhibition at 1 µM ([4]; 0.5 h, read-out: Percent inhibition of DA uptake, A117S, Log[compound] M = -6, single replicates): 87.2%
inhibition at 0.1 µM ([4]; 0.5 h, read-out: Percent inhibition of DA uptake, A117S, Log[compound] M = -7, single replicates): 99.6%
inhibition at 0.023 µM ([4]; 0.5 h, read-out: Percent inhibition of DA uptake, A117S, Log[compound] M = -7.63827, single replicates): 94.7%
IC50 [5]: 6.6 ± 0.4 µM
inhibition at 100 µM ([5]; 0.5 h, read-out: Percent inhibition of DA uptake, A428S, Log[compound] M = -4, single replicates): 7.1%
inhibition at 30 µM ([5]; 0.5 h, read-out: Percent inhibition of DA uptake, A428S, Log[compound] M = -4.52288, single replicates): 15.3%
inhibition at 10 µM ([5]; 0.5 h, read-out: Percent inhibition of DA uptake, A428S, Log[compound] M = -5, single replicates): 34.4%
inhibition at 3 µM ([5]; 0.5 h, read-out: Percent inhibition of DA uptake, A428S, Log[compound] M = -5.52288, single replicates): 73.5%
inhibition at 0.1 µM ([5]; 0.5 h, read-out: Percent inhibition of DA uptake, A428S, Log[compound] M = -7, single replicates): 107%
inhibition at 0.03 µM ([5]; 0.5 h, read-out: Percent inhibition of DA uptake, A428S, Log[compound] M = -7.52288, single replicates): 100%
Ki [6]: > 100 µM
remaining activity at 10 µM ([7]; DATmfc, Log Milnacipran (M) -5, replicate values): 21.2%
remaining activity at 0.03 µM [7]: 98.1%
remaining activity at 0.3 µM [7]: 86.3%
remaining activity at 3 µM [7]: 47.5%
Ki [8]: 0.022 ± 0.00258 µM
Ki [9]: 0.052 ± 0.009 µM
Ki ([10]; Binding Ki with dDATNET (vs. Nisoxetine), 50 nM [3H] nisoxetine, Cheng-Prusoff): 0.605 ± 0.0253 µM
remaining activity at 300 µM ([10]; read-out: Percent binding, DAT NET, Log Milnacipran (M) -3.52288, replicate values): 3.09%
remaining activity at 100 µM ([10]; read-out: Percent binding, DAT NET, Log Milnacipran (M) -4, replicate values): 12%
remaining activity at 30 µM ([10]; read-out: Percent binding, DAT NET, Log Milnacipran (M) -4.52288, replicate values): 31.5%
remaining activity at 10 µM ([10]; read-out: Percent binding, DAT NET, Log Milnacipran (M) -5, replicate values): 60%
remaining activity at 3 µM ([10]; read-out: Percent binding, DAT NET, Log Milnacipran (M) -5.52288, replicate values): 78.6%
